The IC50 is the concentration at which inhibition is half-maximal. For orientation: Emax means the size of the effect at its maximum, as opposed to the concentration needed. By clearance is commonly meant a measure of how efficiently the substance is removed, as volume per time.

The values that follow come from patent publication US20230167068A1, “BENZOPYRAZOLE COMPOUND” (MEDSHINE DISCOVERY INC., priority 2019, published 2023).

In one data set the target is T1, CYP3A4 (Homo sapiens, UniProt P08684).
T1 construct: incubation system containing human liver microsomes, probe substrates, and co-factors; tissue Corning Inc. or other suppliers; host or cells: mixed (pooled) human liver microsomes
T1 sequence (P08684 whole entry): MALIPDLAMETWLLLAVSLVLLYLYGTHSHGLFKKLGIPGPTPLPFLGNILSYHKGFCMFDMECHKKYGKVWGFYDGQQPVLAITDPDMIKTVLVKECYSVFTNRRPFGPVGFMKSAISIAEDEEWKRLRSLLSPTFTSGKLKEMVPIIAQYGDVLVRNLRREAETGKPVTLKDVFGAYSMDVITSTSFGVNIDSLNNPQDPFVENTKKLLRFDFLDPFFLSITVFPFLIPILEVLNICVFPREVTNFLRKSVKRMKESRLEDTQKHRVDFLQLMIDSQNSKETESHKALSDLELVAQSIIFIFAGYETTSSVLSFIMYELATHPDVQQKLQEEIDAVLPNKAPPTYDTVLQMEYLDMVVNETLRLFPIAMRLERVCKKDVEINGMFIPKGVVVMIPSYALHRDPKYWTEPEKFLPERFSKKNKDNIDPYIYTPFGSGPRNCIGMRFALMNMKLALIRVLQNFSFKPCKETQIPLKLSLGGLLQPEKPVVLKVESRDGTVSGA
The data set can be described thus: Human liver microsomal CYP repression experiment. It counts as in vitro ADME. The conditions noted are these: for repression on CYP3A4 (in words): conclusion on Table 3; for IC50: mixed human liver microsomes, 5-in-1 probe substrate. On the procedure:
The purpose of the research project was to evaluate the repression of the test sample on human liver microsomal cytochrome P450 isoenzyme (CYP3A4) using a 5-in-1 probe substrate of CYP isoenzyme.
Mixed human liver microsomes (HLM) were purchased from Corning Inc. (Steuben, New York, USA) or other suppliers and stored at temperatures below -70° C. before use.
The diluted series concentration of the test sample was added to the incubation system containing human liver microsomes, probe substrates, and co-factors of the circulating system, and the control without the test sample but with solvent was used as the enzyme activity control (100%). The concentration of metabolites produced by the probe substrate in the sample was determined by liquid chromatography-tandem mass spectrometry (LC-MS/MS). Non-linear regression analysis of the mean percent activity of the test sample versus concentration was performed using SigmaPlot (V. 11). The IC50 values were calculated by a three- or four-parameter inverse logarithmic equation.
On the technique in general: Microsomes from liver hold many membrane-bound enzymes, among them those of drug oxidation.

For data set [1], the system named is human peripheral blood mononuclear cells TNF-α. In words: Repression of TNF-α in human peripheral blood mononuclear cells (LPS, ELISA). It counts as cell-based. The conditions noted are these: PBMC, 3-fold diluted, 8 concentration (**). How it is done:
Experimental purpose: To express the anti-inflammatory activity of the test compound at the cellular level according to the level of TNF-α in human peripheral blood mononuclear cells (hPBMC).
• [0488] 1) The frozen cells were quickly thawed by continuous stirring in a 37° C. water bath. • [0489] 2) 25 mL of fresh pre-heated thawed culture medium was added to a 50 mL centrifuge tube. Then the cells were added gently, drop by drop. • [0490] 3) Cells were centrifuged at 2000 rpm for 10 min (ascending speed: 9, descending speed: 1). • [0491] 4) The supernatant was discarded and the cell particles were resuspended in 25 mL of freshly pre-heated RPMI 1640 culture medium.
• [0493] 5) After thawing and resuscitating the suspended cells, the number of cells was counted and the total number of cells required for the experiment was calculated. • [0494] 6) The cell suspension was diluted with an appropriate volume of cell culture medium. • [0495] 7) The cell suspension was poured into a sterile disposable container. • [0496] 8) 100,000 cells/(100 µL) of cell suspension was transferred to each well of a 96-well plate. • [0497] 9) The cell plates were placed in humidified air, 5% CO2 incubator, 37° C. for 2 hours.
[…] In the second step, the serum-free culture medium was diluted 125 times, and the concentration of DMSO was 0.8%. Then 16.8 µL of the compound diluted in culture medium was transferred to a 100 µL cell plate, and the concentration of DMSO was 0.114%.
After adding the compound, the cell plates were incubated in a 37° C. 5% CO2 incubator for 1 hour.
In the first step, LPS was diluted with ultrapure water to a storage concentration of 1 mg/mL. In the second step, the storage concentration of LPS was diluted to 1 µg/mL in serum-free culture medium. In the third step, serum-free culture medium was 1666.666-fold diluted. Then 16.8 µL of LPS that has been diluted with culture medium was transferred to a 116.8 µL cell plate. At this time, the final concentration of DMSO was 0.1%. After adding LPS, the cell plate was put into a 37° C., 5% CO2 incubator and incubated for 18 hours.
• [0505] 1. The TNF-α antibody was diluted to 1× in the coating solution, and then 100 µL per well was added to a 96-well high-binding performance plate, and the plate was sealed with a membrane and placed at 4° C. for 18 hours. • [0506] 2. 2000 mL of wash buffer was prepared to 1x for later use.
• [0508] 3. After the plate was coated overnight, the coating solution was poured out and washed 3 times with 300 µL of washing buffer per well. • [0509] 4. After the plate was washed, 200 µL of sealing buffer was added to each well, and the plate was sealed with membrane. Incubated for one hour in a 25° C. incubator. • [0510] 5. The cell plates incubated for 18 hours were placed in a centrifuge for centrifugation, temperature: 25° C., speed: 2000 rpm, time: 10 min, ascending speed: 9, descending speed: 1. After centrifugation, 100 µL of cell supernatant from each well was transferred to a 3599 cell plate, and then placed in a 4° C. refrigerator for later use. • [0511] 6. The cell supernatant was diluted 40 times with sealing buffer and placed in a 4° C. refrigerator for later use, and the standard was also placed in a 4° C. refrigerator for later use. • [0512] 7. After the sealing was completed, the sealing solution was poured out and washed three times with 300 µL of washing buffer per well. • [0513] 8. The diluted cell supernatant samples and standards were added to the ELISA plate, and the plate was sealed with membrane. Then incubated for 2 hours in a 25° C. incubator. • [0514] 9. The liquid in the plate was poured out and washed 5 times with 300 µL of washing buffer per well. • [0515] 10. Antibodies were prepared and 100 µL was added to each well and the plate was sealed with sealing membrane. Then incubated for one hour in a 25° C. incubator. • [0516] 11. The liquid in the plate was poured out and washed 7 times with 300 µL of washing buffer per well. • [0517] 12. […]
Background: ELISA stands for enzyme-linked immunosorbent assay.

Data set [2] is described as follows: In vivo pharmacokinetic properties study in male SD rats. The conditions noted are these: rat, plasma, iv 2 mg/kg. How it is done:
Experimental purpose: The purpose of this study was to determine the pharmacokinetic parameters of compounds in male SD rats.
Experimental methods: In this project, two male SD rats were intravenously administered with a dose of 2 mg/kg and a concentration of 0.4 mg/mL. Plasma samples were collected at 0 h (before administration) and 0.0833, 0.25, 0.5, 1, 2, 4, 6, 8, 24 h after administration. Then the collected samples were analyzed by LC-MS/MS and the data were collected. The collected analytical data were used to calculate the relevant pharmacokinetic parameters using Phoenix WinNonlin 6.3 software.

On to `C[C@H](NC(=O)C(C)(F)F)[C@H](Oc1ccc2c(cnn2-c2cn(C)nn2)c1)c1ccccc1` [WX053], for which, at CYP3A4, the “repression on CYP3A4 (in words)” value was “significantly improve the repression of CYP3A4” and the IC50 worked out at 15.7 µM.

In the case of `CC(C)[C@H](NC(=O)C(C)(F)F)[C@H](Oc1ccc2c(cnn2-c2ccc(=O)n(C)c2)c1)c1ccccc1` [AZD9567, reference compound], the IC50 in data set [1] (absolute IC50, test Top concentration 500 nM, read-out: hPBMC IC50) amounted to 0.0574 µM. For the same compound, the Emax in data set [1] (maximum effect value, test Top concentration 500 nM) was 54.6%. Also, on CYP3A4, the “repression on CYP3A4 (in words)” value is “moderate repression on CYP3A4” and the IC50 turned out to be 2.95 µM. Further, in data set [2], the clearance was found to be 0.255 L/h/kg. Besides, in data set [2] (read-out: T½ (converted)), the half-life was 1.99 h. In data set [2] (read-out: Vdss), the Vd was 0.56 L/kg.
